These results are taken from article PMC5569448 (Iranian Journal of Basic Medical Sciences, 2017).

Holding throughout (format): biochemical
The target in test [1] is acetylcholinesterase (AChE) (Homo sapiens, UniProt P22303). The test is described as follows: AChE inhibition by Ellman's method. The following applies: for inhibition at 35 µM: read-out: AChE % inhibition. Background: DTNB colorimetry detects thiols as they appear.
Test [2] addresses butyrylcholinesterase (BuChE) (Homo sapiens, UniProt P06276). The test is described as follows: BuChE inhibition by Ellman's method. To be noted: for inhibition at 35 µM: read-out: BuChE % inhibition.
For test [3], the target named is AChE (Homo sapiens, UniProt P22303). The test is described as follows: Kinetic study of AChE inhibition.
AChE, sequence (P22303 32-614, species assumed): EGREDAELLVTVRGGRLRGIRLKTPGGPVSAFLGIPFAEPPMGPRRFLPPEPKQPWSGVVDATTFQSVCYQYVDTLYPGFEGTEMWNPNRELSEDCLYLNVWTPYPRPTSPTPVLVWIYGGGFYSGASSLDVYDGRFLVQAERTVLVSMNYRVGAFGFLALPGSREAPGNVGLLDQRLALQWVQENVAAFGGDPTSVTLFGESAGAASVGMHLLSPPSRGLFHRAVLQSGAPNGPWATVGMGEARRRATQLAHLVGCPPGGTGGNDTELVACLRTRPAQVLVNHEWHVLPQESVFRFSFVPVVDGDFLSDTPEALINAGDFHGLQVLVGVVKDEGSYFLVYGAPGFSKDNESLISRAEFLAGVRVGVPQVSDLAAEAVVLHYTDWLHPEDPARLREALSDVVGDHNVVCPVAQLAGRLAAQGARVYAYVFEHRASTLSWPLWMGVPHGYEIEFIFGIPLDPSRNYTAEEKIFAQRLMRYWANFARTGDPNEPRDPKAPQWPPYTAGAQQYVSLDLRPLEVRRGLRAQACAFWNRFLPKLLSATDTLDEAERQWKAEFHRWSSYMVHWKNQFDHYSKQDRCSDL

butyrylcholinesterase (BuChE), sequence (P06276 29-602): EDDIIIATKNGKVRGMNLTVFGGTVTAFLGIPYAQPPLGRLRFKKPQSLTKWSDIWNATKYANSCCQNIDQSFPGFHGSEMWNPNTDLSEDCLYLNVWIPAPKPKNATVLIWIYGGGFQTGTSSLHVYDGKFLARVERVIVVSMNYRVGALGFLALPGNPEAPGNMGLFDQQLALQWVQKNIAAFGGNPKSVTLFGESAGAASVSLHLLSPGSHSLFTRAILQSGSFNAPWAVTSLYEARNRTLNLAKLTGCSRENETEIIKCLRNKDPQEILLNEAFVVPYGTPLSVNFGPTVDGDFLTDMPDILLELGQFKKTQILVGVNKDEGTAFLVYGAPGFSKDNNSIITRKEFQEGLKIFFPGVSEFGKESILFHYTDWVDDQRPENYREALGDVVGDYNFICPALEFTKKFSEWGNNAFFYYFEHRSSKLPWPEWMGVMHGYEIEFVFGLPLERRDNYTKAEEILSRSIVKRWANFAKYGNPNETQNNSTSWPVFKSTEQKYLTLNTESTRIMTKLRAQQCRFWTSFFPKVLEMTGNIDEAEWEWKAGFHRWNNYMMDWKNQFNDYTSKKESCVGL
acetylcholinesterase (AChE), sequence (P22303 32-614, species assumed): as the sequence (P22303 32-614, species assumed) above

Regarding `O=C(O)c1cc2ccc(OCCCOc3cccc4cccnc34)cc2oc1=O` [Compound 3g, 2-Oxo-7-(3-(quinolin-8-yloxy)propoxy)-2H-chromene-3-carboxylic acid], the results for the inhibition at 35 µM in test [1] and in test [2] were 15% and 2%, respectively.
Turning to `O=c1ccc2ccc(OCCCCCOc3cccc4cccnc34)cc2o1` [Compound 3b, 7-((5-(Quinolin-8-yloxy)pentyl)oxy)-2H-chromen-2-one], in test [3], the Ki (in general, the dissociation constant of the complex between target and ligand, obtained from inhibition or displacement) came to 1.32 µM. For the same compound, in test [3] (Lineweaver-Burk plot, substrate ATChI), the “type of AChE inhibition” value was “mixed-type inhibition”. Moreover, the IC50 – broadly, the midpoint of a concentration-inhibition curve – in test [1] amounted to 8.8 µM; in test [2], 26.5 µM.
`CCOC(=O)c1cc2ccc(OCCCOc3cccc4cccnc34)cc2oc1=O` [Compound 3e, Ethyl 2-oxo-7-(3-(quinolin-8-yloxy)propoxy)-2H-chromene-3-carboxylate] showed a half-inhibitory concentration (IC50) in test [1] of 16.2 µM. Besides, in test [2], the inhibition (in general, the relative decrease from the control value, in per cent) at 35 µM came out at 46%.
In the same order, the values of `O=c1ccc2ccc(OCCCCCSc3nc4ccccc4o3)cc2o1` [Compound 3j, 7-((5-(Benzo[d]oxazol-2-ylthio)pentyl)oxy)-2H-chromen-2-one] are 25.4 µM and 14%.
The like results for `Cc1cc(=O)oc2cc(OCCCCCOc3cccc4cccnc34)ccc12` [Compound 3d, 4-Methyl-7-((5-(quinolin-8-yloxy)pentyl)oxy)-2H-chromen-2-one] were, in that order, 14 µM and 34.6%.
The like results for `O=c1ccc2ccc(OCCCCCSc3nc4ccccc4[nH]3)cc2o1` [Compound 3i, 7-((5-((1H-Benzo[d]imidazol-2-yl)thio)pentyl)oxy)-2H-chromen-2-one] were, in that order, 11.7 µM and 38%.
As for `Cc1cc(=O)oc2cc(OCCCSc3nc4ccccc4o3)ccc12` [Compound 3k, 7-(3-(Benzo[d]oxazol-2-ylthio)propoxy)-4-methyl-2H-chromen-2-one], the values for the inhibition at 35 µM in test [1] and in test [2] were 44% and 11%, respectively.
Take `O=c1cc(-c2ccccc2)c2ccc(NCCCOc3cccc4cccnc34)cc2o1` [Compound 3h, 4-Phenyl-7-((3-(quinolin-8-yloxy)propyl)amino)-2H-chromen-2-one]: inhibition in test [1] was half-maximal at 30.2 µM (IC50). In addition, the inhibition at 35 µM in test [2] came out at 37%.
In test [1], `O=c1cc(-c2ccccc2)c2ccc(NCCCSc3nc4ccccc4o3)cc2o1` [Compound 3l, 7-((3-(Benzo[d]oxazol-2-ylthio)propyl)amino)-4-phenyl-2H-chromen-2-one] gave an IC50 of 13 µM. In test [2], the inhibition at 35 µM was 26%.
For the compound `Cc1cc(=O)oc2cc(OCCCOc3cccc4cccnc34)ccc12` [Compound 3c, 4-Methyl-7-(3-(quinolin-8-yloxy)propoxy)-2H-chromen-2-one], the IC50 was found to be 11.3 µM in test [1] and 32.4 µM in test [2].
Take `O=c1ccc2ccc(OCCCCOc3cccc4cccnc34)cc2o1` [Compound 3a, 7-(4-(Quinolin-8-yloxy)butoxy)-2H-chromen-2-one]: the inhibition at 35 µM in test [1] came to 48%. The compound further came in with an IC50 in test [2] of 28.3 µM.
As for `CCOC(=O)c1cc2ccc(OCCCCCOc3cccc4cccnc34)cc2oc1=O` [Compound 3f, Ethyl 2-oxo-7-((5-(quinolin-8-yloxy)pentyl)oxy)-2H-chromene-3-carboxylate], the IC50 in test [1] worked out at 8.94 µM. Also, the inhibition at 35 µM in test [2] was 29.2%.
